What was measured:
Format in all cases: in vivo
[1] = tested on: Myzus persicae; experiment: Myzus persicae test, Example D (sprayed to runoff, ammonium salt boosting)
Protocol: (§1) Solvent: 7 parts by weight dimethylformamide
(§2) Emulsifier: 2 parts by weight alkylaryl polyglycol ether
(§3) An appropriate preparation of active ingredient is prepared by mixing 1 part by weight of active ingredient with the stated amounts of solvent and emulsifier and diluting the concentrate with water to the desired concentration. For the application with ammonium salts or phosphonium salts, these salts are added in a concentration of 1000 ppm to the spray liquor.
Paprika plants (Capsicum annum) heavily infested by the green peach aphid (Myzus persicae) are treated by being. sprayed to runoff with the preparation of active ingredient at the desired concentration. After the desired time the destruction in % is ascertained. 100% means that all of the animals have been killed; 0% means that no animals have been killed.

[2] = tested on: Aphis gossypii; experiment: Aphis gossypii test, Example E (sprayed to runoff, ammonium salt boosting)
Protocol: as §1, §2
as §3, with “concentrate with emulsifier-containing water to” for “concentrate with water to”
(§4) Cotton plants (Gossypium hirsutum) heavily infested by the cotton aphid (Aphis gossypii) are sprayed to runoff with the preparation of active ingredient at the desired concentration.
(§5) After the desired time the destruction in % is ascertained. 100% means that all of the aphids have been killed; 0% means than no aphids were killed.

[3] = tested on: Myzus persicae; experiment: Myzus persicae test, Example F (sprayed to runoff, ammonium salt plus penetrant)
Protocol: as §1, §2
An appropriate preparation of active ingredient is prepared by mixing 1 part by weight of active ingredient with the stated amounts of solvent and emulsifier and diluting the concentrate with water to the desired concentration. For the application with ammonium salts or phosphonium salts and penetrant (rapeseed oil methyl ester 500 EW), they are each added in a concentration of 1000 ppm to the spray liquor.
After the desired time the destruction in % is ascertained. 100% means that all of the animals have been killed; 0% means that no animals have been killed.

[4] = tested on: Aphis gossypii; experiment: Aphis gossypii test, Example G (sprayed to runoff, ammonium salt plus penetrant)
Protocol: as §1, §2
An appropriate preparation of active ingredient is prepared by mixing 1 part by weight of active ingredient with the stated amounts of solvent and emulsifier and diluting the concentrate with emulsifier-containing water to the desired concentration. For the application with ammonium salts or phosphonium salts and penetrants (rapeseed oil methyl esters 500 EW), they are each added in a concentration of 1000 ppm a.i. to the spray liquor.
as §4, §5

[5] = 4 ppm active ingredient, +AS (1000 ppm)
[6] = 4 ppm active ingredient, no additive
[7] = 20 ppm active ingredient, +AS (1000 ppm)
[8] = 20 ppm active ingredient, no additive
[9] = 4 ppm active ingredient, +RME (1000 ppm)
[10] = 4 ppm active ingredient, +RME +AS (each 1000 ppm)
[11] = 0.8 ppm active ingredient, +AS (1000 ppm)
[12] = 0.8 ppm active ingredient, +RME (1000 ppm)
[13] = 0.8 ppm active ingredient, +RME +AS (each 1000 ppm)
[14] = 0.8 ppm active ingredient, no additive
[15] = 20 ppm active ingredient, +RME (1000 ppm)
[16] = 20 ppm active ingredient, +RME +AS (each 1000 ppm)

`Cc1ccc(-c2ccc(Cl)cc2)cc1C1=C(O)C(C)(C)NC1=O` [Example I-1-a-3] was tested, and the “Degree of destruction/% after 6 days” value [1, 5] was 90%, the “Degree of destruction/% after 6 days” value [1, 6] was 0% and the “Degree of destruction/% after 6 days” value [1, 7] was 75%. The “Degree of destruction/% after 6 days” value [1, 8] was 60%, the “Degree of destruction/% after 6 days” value [2, 5] was 35% and the “Degree of destruction/% after 6 days” value [2, 6] was 5%. For the same compound, the “Degree of destruction/% after 6 days” value [2, 7] was 80%, the “Degree of destruction/% after 6 days” value [2, 8] was 20% and the “Degree of destruction/% after 6 days” value [3, 5] was 20%. For the same compound, the “Degree of destruction/% after 6 days” value [3, 9] was 10%, the “Degree of destruction/% after 6 days” value [3, 10] was 90% and the “Degree of destruction/% after 6 days” value [3, 6] was 0%.
`COCC1CCC2(CC1)NC(=O)C(c1c(C)cc(Cl)cc1C)=C2O` (centres unmarked) [Example I-1-a-15] was tested, and the “Degree of destruction/% after 6 days” value [2, 5] was 75%, the “Degree of destruction/% after 6 days” value [2, 6] was 40% and the “Degree of destruction/% after 6 days” value [2, 7] was 95%. For the same compound, the “Degree of destruction/% after 6 days” value [2, 8] was 80%, the “Degree of destruction/% after 6 days” value [3, 11] was 0% and the “Degree of destruction/% after 6 days” value [3, 12] was 50%. For the same compound, the “Degree of destruction/% after 6 days” value [3, 13] was 80% and the “Degree of destruction/% after 6 days” value [3, 14] was 15%.
In the case of `CCOC(=O)OC1=C(c2c(C)cc(C)cc2C)C(=O)NC12CCC(COC)CC2` (centres unmarked) [Example I-1-c-2], the “Degree of destruction/% after 6 days” value [4, 7] is reported as 85%, the “Degree of destruction/% after 6 days” value [4, 15] is reported as 90% and the “Degree of destruction/% after 6 days” value [4, 16] is reported as 99%. The “Degree of destruction/% after 6 days” value [4, 8] was 85%.
With `Cc1ccc(-c2ccc(Cl)cc2)c(C)c1C1C(=O)N2CCOCCN2C1=O` [Example I-8-a-3] the “Degree of destruction/% after 6 days” value [4, 7] was 50%, the “Degree of destruction/% after 6 days” value [4, 15] was 50% and the “Degree of destruction/% after 6 days” value [4, 16] was 90%. The “Degree of destruction/% after 6 days” value [4, 8] was 15%.
In the case of `Cc1ccc(-c2ccc(Cl)cc2)cc1C1=C(O)C2(C)CCCCC2OC1=O` (centres unmarked) [Example I-10-a-2], the “Degree of destruction/% after 6 days” value [2, 5] is reported as 50%, the “Degree of destruction/% after 6 days” value [2, 6] is reported as 0% and the “Degree of destruction/% after 6 days” value [2, 7] is reported as 80%. The “Degree of destruction/% after 6 days” value [2, 8] was 10%, the “Degree of destruction/% after 6 days” value [3, 7] was 10% and the “Degree of destruction/% after 6 days” value [3, 15] was 0%. The “Degree of destruction/% after 6 days” value [3, 16] was 65% and the “Degree of destruction/% after 6 days” value [3, 8] was 5%.
For `COc1cc(C)cc(C)c1-c1c(O)sc(-c2ccc(F)cc2)nc1=O` [Example I-5-a-1], the “Degree of destruction/% after 6 days” value [1, 7] was 55%, the “Degree of destruction/% after 6 days” value [1, 8] was 0% and the “Degree of destruction/% after 6 days” value [3, 5] was 5%. For the same compound, the “Degree of destruction/% after 6 days” value [3, 9] was 55%, the “Degree of destruction/% after 6 days” value [3, 10] was 95% and the “Degree of destruction/% after 6 days” value [3, 6] was 0%.
`COCCC1CCC2(CC1)NC(=O)C(c1c(C)cc(C)cc1C)=C2O` (centres unmarked) [Example I-1-a-17] was tested, and the “Degree of destruction/% after 6 days” value [2, 5] was 80%, the “Degree of destruction/% after 6 days” value [2, 6] was 50% and the “Degree of destruction/% after 6 days” value [2, 7] was 85%. The “Degree of destruction/% after 6 days” value [2, 8] was 70%.
`CO[C@@H]1CCC[C@]2(C1)NC(=O)C(c1c(C)cc(C)cc1C)=C2O` [Example I-1-a-6] was tested, and the “Degree of destruction/% after 6 days” value [2, 11] was 30%, the “Degree of destruction/% after 6 days” value [2, 14] was 15% and the “Degree of destruction/% after 6 days” value [2, 5] was 55%. For the same compound, the “Degree of destruction/% after 6 days” value [2, 6] was 25%, the “Degree of destruction/% after 6 days” value [4, 5] was 55% and the “Degree of destruction/% after 6 days” value [4, 9] was 50%. For the same compound, the “Degree of destruction/% after 6 days” value [4, 10] was 80% and the “Degree of destruction/% after 6 days” value [4, 6] was 25%.
With `COCC1CCC2(CC1)NC(=O)C(c1c(C)cc(C)cc1C)=C2O` (centres unmarked) [Example I-1-a-14] the “Degree of destruction/% after 6 days” value [2, 11] was 40%, the “Degree of destruction/% after 6 days” value [2, 14] was 25% and the “Degree of destruction/% after 6 days” value [2, 5] was 90%. For the same compound, the “Degree of destruction/% after 6 days” value [2, 6] was 55%.
For `COC1CCC2(CC1)OC(=O)C(c1c(C)cc(C)cc1C)=C2O` (centres unmarked) [Example I-2-a-1], the “Degree of destruction/% after 6 days” value [1, 11] was 65%, the “Degree of destruction/% after 6 days” value [1, 14] was 20% and the “Degree of destruction/% after 6 days” value [1, 5] was 98%. For the same compound, the “Degree of destruction/% after 6 days” value [1, 6] was 90%, the “Degree of destruction/% after 6 days” value [2, 11] was 85% and the “Degree of destruction/% after 6 days” value [2, 14] was 0%. For the same compound, the “Degree of destruction/% after 6 days” value [2, 5] was 95%, the “Degree of destruction/% after 6 days” value [2, 6] was 80% and the “Degree of destruction/% after 6 days” value [3, 11] was 65%. For the same compound, the “Degree of destruction/% after 6 days” value [3, 12] was 95%, the “Degree of destruction/% after 6 days” value [3, 13] was 100% and the “Degree of destruction/% after 6 days” value [3, 14] was 20%.
In the case of `COC1CCCC2(CC(O)=C(c3c(C)cc(C)cc3C)C2=O)C1` (centres unmarked) [Example I-6-a-2], the “Degree of destruction/% after 6 days” value ([4]; 100 ppm active ingredient, +AS (1000 ppm)) is reported as 30%, the “Degree of destruction/% after 6 days” value ([4]; 100 ppm active ingredient, +RME (1000 ppm)) is reported as 15% and the “Degree of destruction/% after 6 days” value ([4]; 100 ppm active ingredient, +RME +AS (each 1000 ppm)) is reported as 40%. The “Degree of destruction/% after 6 days” value ([4]; 100 ppm active ingredient, no additive) was 0%.
